Literature values, collected in patent publication US7976869B2, “Fenofibrate tablets” (Laboratoires Fournier S.A., priority 2001, dated 2011).
Like-named read-outs stand apart in the source and are kept apart here.

Conditions: conventional gelatin capsule form

Q: For `CC(C)OC(=O)C(C)(C)Oc1ccc(C(=O)c2ccc(Cl)cc2)cc1` [Fenofibrate], which bioavailability (after a meal) is on record?
A: The bioavailability was 89%.

Q: What about the bioavailability (on an empty stomach) of the same compound?
A: The bioavailability was 26%.
